This data set is described as follows: Stability of COMPOUND A in human intestinal fluids, Procedure F (suspension, no separation of excess), first table. In kind it is in vitro ADME. The settings on record: summary of Example 5. The procedure: Fasted Intestinal Fluids: the fluids from 4 different subjects were collected with a naso-jejunal tube after fasting overnight and pooled.
Procedure F (COMPOUND A and COMPOUND B in suspension, the degradation immediately stopped without separation of excess compound): Stock K=COMPOUND B suspension (0.5 mg/mL)
Dilute 1 part of COMPOUND B suspension (stock J) with 3 parts of FeSSIF pH6.5 solution.
500 μL of freshly thawed intestinal fluids (fasted and stimulated state) were added to 1.2 mg of COMPOUND A in a 1 mL glass vial. The suspended compound was stirred for 15 min at 37° C. to obtain wetting and a homogenous suspension. In parallel, 4 glass vials were prepared with 20 μL of a COMPOUND B suspension at different concentrations. These concentrations were obtained by mixing FeSSIF pH6.5 and COMPOUND B suspension (stock K) in different ratios, respectively 1:[…], 1:1, 0:1 to obtain 0, 1, 2 and 4% related to COMPOUND A. At time zero, 100 μL of COMPOUND A suspension preincubated at 37° C. were added to the 20 μL COMPOUND B suspension. The mixture was incubated at 37° C. with gentle stirring. After 15 min and 60 min, the reaction was stopped by mixing a 50 μL sample with 150 μL isopropanol and centrifuged at 5′000 rpm during 5 min. The clear supernatant was analyzed for the hydrolysis product and its oxidized form by HPLC.

As for `CCCCCCCCCCC[C@@H](C[C@@H]1OC(=O)[C@H]1CCCCCC)OC(=O)[C@H](CC(C)C)NC=O` [COMPOUND B, 1-(3-hexyl-4-oxo-oxetan-2-yl)tridecan-2-yl 2-formyl-amino-4-methyl-pentanoate, reference compound], the “Effect of COMPOUND B on gastrointestinal enzyme induced hydrolytic degradation of COMPOUND A” value is reported as “efficiently prevents gastrointestinal enzyme induced hydrolytic degradation of COMPOUND A”.

The values above are taken from US20100144853A1, “NOVEL COMBINED ADMINISTRATION” (priority 2008, published 2010).
